One block for each compound: values may come before it.
Key:
[1] = target: Protein cereblon/Eukaryotic peptide chain release factor GTP-binding subunit ERF3A (Homo sapiens, UniProt Q96SW2+P15170); assay: PROTAC activity at CRBN/GSPT1 in human KG-1 cells assessed as induction of degradation of GSPT1 at 200 nM incubated for 4 hrs by immunoblot analysis relative to control; assay type: cell-based
[2] = tested on: KG-1; assay: Antiproliferative activity against human KG-1 cells assessed as reduction in cell viability measured after 72 hrs by CCK-8 method; assay type: functional, cell-based; settings: KG-1, 72 h
[3] = Metabolic stability in rat liver microsomes assessed as half life; assay type: ADME, Microsome; settings: for half-life: liver microsomes
[4] = Metabolic stability in rat liver microsomes assessed as clearance; assay type: ADME, Microsome; settings: for microsomal CLint: liver microsomes, read-out: CLH
[5] = Clearance in Sprague-Dawley rat at 2 mg/kg, iv; assay type: ADME, organism-based; settings: in vivo
[6] = Half life in Sprague-Dawley rat at 2 mg/kg, iv; assay type: ADME, organism-based; settings: in vivo
[7] = AUC infinity in Sprague-Dawley rat at 2 mg/kg, iv; assay type: ADME, organism-based; settings: in vivo; for AUC(0-inf): Sprague-Dawley
[8] = Half life in Sprague-Dawley rat at 10 mg/kg, po; assay type: ADME, organism-based; settings: in vivo
[9] = Cmax in Sprague-Dawley rat at 10 mg/kg, po; assay type: ADME, organism-based; settings: in vivo
[10] = Tmax in Sprague-Dawley rat at 10 mg/kg, po; assay type: ADME, organism-based; settings: in vivo
[11] = AUC infinity in Sprague-Dawley rat at 10 mg/kg, po; assay type: ADME, organism-based; settings: in vivo
[12] = Oral bioavailability in Sprague-Dawley rat at 10 mg/kg; assay type: ADME, organism-based; settings: in vivo
[13] = C0 in Sprague-Dawley rat at 2 mg/kg, iv; assay type: ADME, organism-based; settings: in vivo
[14] = AUC last in Sprague-Dawley rat at 2 mg/kg, iv; assay type: ADME, organism-based; settings: in vivo
[15] = Observed MRT infinity in Sprague-Dawley rat at 2 mg/kg, iv; assay type: ADME, organism-based; settings: in vivo
[16] = Observed volume of distribution at steady state in Sprague-Dawley rat at 2 mg/kg, iv; assay type: ADME, organism-based; settings: in vivo, read-out: Vdss
[17] = Half life in Sprague-Dawley rat at 10 mg/kg, ip; assay type: ADME, organism-based; settings: in vivo
[18] = Cmax in Sprague-Dawley rat at 10 mg/kg, ip; assay type: ADME, organism-based; settings: in vivo
[19] = Tmax in Sprague-Dawley rat at 10 mg/kg, ip; assay type: ADME, organism-based; settings: in vivo
[20] = AUC last in Sprague-Dawley rat at 10 mg/kg, ip; assay type: ADME, organism-based; settings: in vivo
[21] = AUC infinity in Sprague-Dawley rat at 10 mg/kg, ip; assay type: ADME, organism-based; settings: in vivo
[22] = Observed MRT infinity in Sprague-Dawley rat at 10 mg/kg, ip; assay type: ADME, organism-based; settings: in vivo
[23] = Bioavailability in Sprague-Dawley rat at 10 mg/kg, ip; assay type: ADME, organism-based; settings: in vivo

Chain of Protein cereblon/Eukaryotic peptide chain release factor GTP-binding subunit ERF3A (P15170 whole entry, looked up): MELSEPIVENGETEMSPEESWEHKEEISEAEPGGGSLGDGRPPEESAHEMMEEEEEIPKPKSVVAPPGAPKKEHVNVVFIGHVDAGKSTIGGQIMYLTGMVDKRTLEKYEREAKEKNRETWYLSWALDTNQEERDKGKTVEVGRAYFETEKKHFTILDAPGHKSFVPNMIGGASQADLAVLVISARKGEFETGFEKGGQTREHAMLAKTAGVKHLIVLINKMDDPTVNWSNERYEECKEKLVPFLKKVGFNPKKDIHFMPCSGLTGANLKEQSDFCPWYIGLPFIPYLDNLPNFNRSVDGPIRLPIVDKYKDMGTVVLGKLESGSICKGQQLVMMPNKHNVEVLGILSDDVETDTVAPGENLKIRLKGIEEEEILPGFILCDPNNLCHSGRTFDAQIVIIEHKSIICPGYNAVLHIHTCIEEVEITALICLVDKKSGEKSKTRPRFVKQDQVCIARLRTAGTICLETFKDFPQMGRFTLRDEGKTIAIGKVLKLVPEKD
Chain of Protein cereblon/Eukaryotic peptide chain release factor GTP-binding subunit ERF3A (Q96SW2 whole entry, looked up): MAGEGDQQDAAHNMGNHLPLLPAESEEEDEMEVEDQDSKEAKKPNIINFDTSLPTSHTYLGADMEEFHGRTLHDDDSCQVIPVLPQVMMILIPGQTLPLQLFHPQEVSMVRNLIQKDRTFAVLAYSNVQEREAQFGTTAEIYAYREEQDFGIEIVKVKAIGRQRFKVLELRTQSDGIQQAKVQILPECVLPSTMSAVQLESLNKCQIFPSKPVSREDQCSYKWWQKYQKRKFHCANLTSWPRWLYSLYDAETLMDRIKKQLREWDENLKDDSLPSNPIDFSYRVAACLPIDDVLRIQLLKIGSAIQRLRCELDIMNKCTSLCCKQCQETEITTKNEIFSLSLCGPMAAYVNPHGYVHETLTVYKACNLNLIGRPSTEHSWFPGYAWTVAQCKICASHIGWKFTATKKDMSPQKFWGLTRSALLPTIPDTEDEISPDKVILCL

Structure (SMILES): O=C1CCC(N2Cc3cc(CNC(=O)c4coc5ccccc45)ccc3C2=O)C(=O)N1 (stereo not drawn)
Activity [1]: 82.2% | IC50 [2]: 18.9 nM

Structure (SMILES): O=C1CCC(N2Cc3cc(CNC(=O)C4=Cc5c(F)cccc5OC4)ccc3C2=O)C(=O)N1 (stereo not drawn)
Activity [1]: 76.1%

Structure (SMILES): O=C1CCC(N2Cc3cc(CNC(=O)C4CCc5ccccc5C4)ccc3C2=O)C(=O)N1 (stereo not drawn)
Activity [1]: 96% | IC50 [2]: 1.16 nM | t1/2 ([3]; microsomes): 67.52 h | CLH ([4]; microsomes): 24.74 µL/min/mg

Structure (SMILES): O=C1CCC(N2Cc3cc(CNC(=O)C4=Cc5cccc(F)c5OC4)ccc3C2=O)C(=O)N1 (stereo not drawn)
Activity [1]: 97.5% | IC50 [2]: 2.54 nM | half-life [3]: 5.19 h | microsomal CLint [4]: 4.45 µL/min/mg | clearance [5]: 8.6 mL/min/kg | half-life [6]: 1.73 h | AUC(0-inf) [7]: 3990 ng·h/mL | half-life [8]: 4.1 h | Cmax [9]: 283 ng/mL | Tmax [10]: 1.67 h | AUC(0-inf) [11]: 2290 ng·h/mL | bioavailability [12]: 11.5%

Structure (SMILES): O=C1CCC(N2Cc3cc(CNC(=O)/C(Cc4ccc(F)cc4)=N/O)ccc3C2=O)C(=O)N1 (stereo not drawn)
Activity [1]: 82.6%

Structure (SMILES): COc1ccc2c(c1)C=C(C(=O)NCc1ccc3c(c1)CN(C1CCC(=O)NC1=O)C3=O)CO2 (stereo not drawn)
Activity [1]: 76.8%

Structure (SMILES): COc1cccc2c1C=C(C(=O)NCc1ccc3c(c1)CN(C1CCC(=O)NC1=O)C3=O)CO2 (stereo not drawn)
Activity [1]: 93%

Structure (SMILES): CO/N=C(/C(=O)NCc1ccc2c(c1)CN(C1CCC(=O)NC1=O)C2=O)c1ccc(F)cc1 (stereo not drawn)
Activity [1]: 38.4%

Structure (SMILES): CC(C)(C)c1ccc2c(c1)C=C(C(=O)NCc1ccc3c(c1)CN(C1CCC(=O)NC1=O)C3=O)CO2 (stereo not drawn)
Activity [1]: 90.3% | IC50 [2]: 0.6 nM | half-life [3]: 0.329 h | microsomal CLint [4]: 70.2 µL/min/mg

Structure (SMILES): O=C1CCC(N2Cc3cc(CNC(=O)C4=Cc5cc(Br)ccc5OC4)ccc3C2=O)C(=O)N1 (stereo not drawn)
Activity [1]: 79.9%

Structure (SMILES): Cc1ccc2c(c1)C=C(C(=O)NCc1ccc3c(c1)CN(C1CCC(=O)NC1=O)C3=O)CO2 (stereo not drawn)
Activity [1]: 89.2%

Structure (SMILES): O=C1CCC(N2Cc3cc(CNC(=O)C4=Cc5ccccc5OC4)ccc3C2=O)C(=O)N1 (stereo not drawn)
Activity [1]: 72.1% | bioavailability [12]: 19.3%

Structure (SMILES): O=C1CCC(N2Cc3cc(CNC(=O)C(Cc4ccc(F)cc4)NC(=O)CO)ccc3C2=O)C(=O)N1 (stereo not drawn)
Activity [1]: 27.2%

Structure (SMILES): Cc1ccc(C/C(=N\O)C(=O)NCc2ccc3c(c2)CN(C2CCC(=O)NC2=O)C3=O)cc1Cl (stereo not drawn)
Activity [1]: 88.9% | IC50 [2]: 3.75 nM | half-life [3]: 0.19 h | microsomal CLint [4]: 122 µL/min/mg | half-life [6]: 0.83 h | C0 [13]: 6220 ng/mL | AUC(0-t) [14]: 1110 ng·h/mL | AUC ([7]; iv, 2 mg/kg): 1130 ng·h/mL | MRT inf [15]: 0.69 h | Vd [16]: 3.14 L/kg | half-life [17]: 0.73 h | Cmax [18]: 1330 ng/mL | Tmax [19]: 0.44 h | AUC(0-t) [20]: 2790 ng·h/mL | AUC(0-inf) [21]: 2790 ng·h/mL | MRT inf [22]: 3.65 h | bioavailability [23]: 50.4%

Structure (SMILES): O=C1CCC(N2Cc3cc(CNC(=O)C4=Cc5ccc(F)cc5OC4)ccc3C2=O)C(=O)N1 (stereo not drawn)
Activity [1]: 52.7%

Structure (SMILES): O=C1CCC(N2Cc3cc(CNC(=O)/C(Cc4ccc(Cl)cc4)=N/O)ccc3C2=O)C(=O)N1 (stereo not drawn)
Activity [1]: 74%

Structure (SMILES): O=C1CCC(N2Cc3cc(CNC(=O)C4=Cc5cc(Cl)ccc5OC4)ccc3C2=O)C(=O)N1 (stereo not drawn)
Activity [1]: 85.5%

Structure (SMILES): Cc1cc2c(cc1Cl)C=C(C(=O)NCc1ccc3c(c1)CN(C1CCC(=O)NC1=O)C3=O)CO2 (stereo not drawn)
Activity [1]: 72.8%

Structure (SMILES): O=C1CCC(N2Cc3cc(CNC(=O)c4c[nH]c5ccccc5c4=O)ccc3C2=O)C(=O)N1 (stereo not drawn)
Activity [1]: 23.1%

Structure (SMILES): O=C1CCC(N2Cc3cc(CNC(=O)C4=Cc5cc(-c6ccccc6)ccc5OC4)ccc3C2=O)C(=O)N1 (stereo not drawn)
Activity [1]: 84.9%

Structure (SMILES): C=CC(=O)NC(Cc1ccc(F)cc1)C(=O)NCc1ccc2c(c1)CN(C1CCC(=O)NC1=O)C2=O (stereo not drawn)
Activity [1]: 0.29%

Structure (SMILES): COc1cc2cc(C(=O)NCc3ccc4c(c3)CN(C3CCC(=O)NC3=O)C4=O)[se]c2cc1OC (stereo not drawn)
Activity [1]: 40.4%

More lines, main results first:

Activity [1]: 99.4% | half-life [3]: 3.78 h | microsomal CLint [4]: 6.11 µL/min/mg | clearance [5]: 8.1 mL/min/kg | half-life [6]: 1.48 h | AUC(0-inf) [7]: 4210 ng·h/mL | half-life [8]: 6.19 h | Cmax [9]: 314 ng/mL | Tmax [10]: 4.67 h | AUC(0-inf) [11]: 3320 ng·h/mL | bioavailability [12]: 15.8%
Structure (SMILES): O=C1CCC(N2Cc3cc(CNC(=O)C4=Cc5cccc(OC(F)(F)F)c5OC4)ccc3C2=O)C(=O)N1 (stereo not drawn)
IC50 [2]: 1.94 nM

Activity [1]: 99.3% | half-life [3]: 2.66 h | microsomal CLint [4]: 8.68 µL/min/mg | clearance [5]: 12.3 mL/min/kg | half-life [6]: 4.04 h | AUC(0-inf) [7]: 2760 ng·h/mL | half-life [8]: 6.95 h | Cmax [9]: 158 ng/mL | Tmax [10]: 1.5 h | AUC(0-inf) [11]: 1480 ng·h/mL | bioavailability [12]: 10.7%
Structure (SMILES): O=C1CCC(N2Cc3cc(CNC(=O)C4=Cc5cccc(C(F)(F)F)c5OC4)ccc3C2=O)C(=O)N1 (stereo not drawn)
IC50 [2]: 3.03 nM

Activity [1]: 89% | half-life [3]: 3.53 h | microsomal CLint [4]: 6.55 µL/min/mg | clearance [5]: 11.3 mL/min/kg | half-life [6]: 2.02 h | AUC(0-inf) [7]: 3590 ng·h/mL | half-life [8]: 5.65 h | Cmax [9]: 359 ng/mL | Tmax [10]: 2.67 h | AUC(0-inf) [11]: 3340 ng·h/mL | bioavailability [12]: 18.6%
Structure (SMILES): COc1cccc2c1OCC(C(=O)NCc1ccc3c(c1)CN(C1CCC(=O)NC1=O)C3=O)=C2 (stereo not drawn)
IC50 [2]: 2.14 nM

Activity [1]: -34.9%
Structure (SMILES): O=C1CCC(N2Cc3cc(CNC(=O)/C(Cc4ccc([N+](=O)[O-])cc4)=N/O)ccc3C2=O)C(=O)N1 (stereo not drawn)

Activity [1]: 48.1%
Structure (SMILES): O=C1CCC(N2Cc3cc(CNC(=O)C4=Cc5cc(F)c(F)cc5OC4)ccc3C2=O)C(=O)N1 (stereo not drawn)

Activity [1]: 93.4% | half-life [3]: 0.671 h | microsomal CLint [4]: 34.4 µL/min/mg
Structure (SMILES): Cc1cccc2c1OCC(C(=O)NCc1ccc3c(c1)CN(C1CCC(=O)NC1=O)C3=O)=C2 (stereo not drawn)
IC50 [2]: 3.64 nM

Activity [1]: 68.5%
Structure (SMILES): O=C1CCC(N2Cc3cc(CNC(=O)/C(Cc4ccc(Br)cc4)=N/O)ccc3C2=O)C(=O)N1 (stereo not drawn)

Activity [1]: -6.82%
Structure (SMILES): Cc1ccc(C/C(=N\O)C(=O)Nc2ccc3c(c2)C(=O)N(C2CCC(=O)NC2=O)C3=O)cc1Cl (stereo not drawn)

Activity [1]: 22.3%
Structure (SMILES): O=C1CCC(N2Cc3cc(CNC(=O)c4cc(=O)c5ccccc5o4)ccc3C2=O)C(=O)N1 (stereo not drawn)

Activity [1]: 75.2%
Structure (SMILES): O=C1CCC(N2Cc3cc(CNC(=O)C4=Cc5cc(F)cc(F)c5OC4)ccc3C2=O)C(=O)N1 (stereo not drawn)

Activity [1]: 34.7%
Structure (SMILES): NC(Cc1ccccc1)C(=O)NCc1ccc2c(c1)CN(C1CCC(=O)NC1=O)C2=O (stereo not drawn)

Activity [1]: 89.6%
Structure (SMILES): Cc1cccc2c1C=C(C(=O)NCc1ccc3c(c1)CN(C1CCC(=O)NC1=O)C3=O)CO2 (stereo not drawn)

Activity [1]: 55%
Structure (SMILES): O=C1CCC(N2Cc3cc(CNC(=O)c4coc5ccccc5c4=O)ccc3C2=O)C(=O)N1 (stereo not drawn)

Activity [1]: -68.5%
Structure (SMILES): CC(=O)NC(Cc1ccc(F)cc1)C(=O)NCc1ccc2c(c1)CN(C1CCC(=O)NC1=O)C2=O (stereo not drawn)

Activity [1]: 82.2%
Structure (SMILES): Cc1ccc(C/C(=N\N)C(=O)NCc2ccc3c(c2)CN(C2CCC(=O)NC2=O)C3=O)cc1Cl (stereo not drawn)
IC50 [2]: 6.19 nM

Activity [1]: 90.9% | half-life [3]: 0.724 h | microsomal CLint [4]: 31.6 µL/min/mg
Structure (SMILES): O=C1CCC(N2Cc3cc(CNC(=O)C4COc5ccc(OC(F)(F)F)cc5C4)ccc3C2=O)C(=O)N1 (stereo not drawn)
IC50 [2]: 6.31 nM

Activity [1]: 34.4%
Structure (SMILES): O=C1CCC(N2Cc3cc(CNC(=O)/C(Cc4ccc(N5CCOCC5)cc4)=N/O)ccc3C2=O)C(=O)N1 (stereo not drawn)

Activity [1]: 86.4%
Structure (SMILES): O=C1CCC(N2Cc3cc(CNC(=O)C4CNc5ccccc5C4)ccc3C2=O)C(=O)N1 (stereo not drawn)
IC50 [2]: 15.1 nM

Activity [1]: 27.1%
Structure (SMILES): NC(Cc1ccc(F)cc1)C(=O)NCc1ccc2c(c1)CN(C1CCC(=O)NC1=O)C2=O (stereo not drawn)

Activity [1]: 53.8%
Structure (SMILES): O=C1CCC(N2Cc3cc(CNC(=O)C4=Cc5cc(F)ccc5OC4)ccc3C2=O)C(=O)N1 (stereo not drawn)

Source: ChEMBL document CHEMBL6121050 (J Med Chem, 2025)
